Like-named read-outs stand apart in the source and are kept apart here.
Tested on: SSTR2 mutants
Assay: SSTRs Gi-mediated cAMP inhibition, GloSensor, HEK293, 5 μM forskolin, 15 min room temperature (SSTR2 mutants)
Assay type: cell-based, human
Design: Best-fit Bottom, cAMP inhibition / Best-fit Top, cAMP inhibition / Span, cAMP inhibition / Bottom (best-fit value) / Top (best-fit value) / Span (best-fit value) / Span (best-fit) / Bottom (best-fit) / Top (best-fit) / Best-fit Bottom / Best-fit Top / Best-fit Span / Top / Span: scale not given here
Description: The levels of the intracellular 3′, 5′-cyclic AMP (cAMP) were measured by the GloSensor cAMP assay (Promega) as described in the previous studies[28],[41] which has been widely used. The human full-length SSTRs and mutants were cloned into the pcDNA3.1+ vector with a HA signal sequence followed by a Flag tag at the N-terminus. HEK293 cells (ATCC, CRL-1573) were seeded into 6-well microplates at a density of 1.0 × 10^6 cells/well and cultured for 24 h at 37 °C with 5% CO2. Cells were then co-transfected with SSTR wild-type or mutants and GloSensor plasmids. After 24 h of transfection, the cells were dissociated with TrypLE™ Express Enzyme (1X) (Thermo Fisher Scientific) and collected by centrifugation at 500 × g for 5 min. Then the collected cells were suspended in Hank’s balanced salt solution [HBSS (Thermo Fisher Scientific)] supplemented with […] (YEASEN), and then the suspension cells were seeded into 96-well plates with 90 μl/well. After incubating at room temperature for 40 min, 5 μM forskolin and ligands diluted in HBSS were added to each well and the plates were incubated at room temperature for 15 min. […] were measured using the Synergy H1 microplate reader (BioTek) and the data presented are means of at least three independent experiments.

[1] = cAMP inhibition, SSTR2 F127A-1 (run 1)
[2] = cAMP inhibition, SSTR2 F127A-2 (run 2)
[3] = cAMP inhibition, SSTR2 F127A-3 (run 3)
[4] = cAMP inhibition, SSTR2 F208A-1 (run 1)
[5] = cAMP inhibition, SSTR2 F208A-2 (run 2)
[6] = cAMP inhibition, SSTR2 F208A-3 (run 3)
[7] = cAMP inhibition, SSTR2 I130A-1 (run 1)
[8] = cAMP inhibition, SSTR2 I130A-2 (run 2)
[9] = cAMP inhibition, SSTR2 I130A-3 (run 3)
[10] = cAMP inhibition, SSTR2 Y205A-1 (run 1)
[11] = cAMP inhibition, SSTR2 Y205A-2 (run 2)
[12] = cAMP inhibition, SSTR2 Y205A-3 (run 3)
[13] = cAMP inhibition, SSTR2 T194H, run 1
[14] = cAMP inhibition, SSTR2 T194H, run 2
[15] = cAMP inhibition, SSTR2 T194H, run 3
[16] = cAMP inhibition, SSTR2 T194H, run 4
[17] = cAMP inhibition, SSTR2 V103N, run 1
[18] = cAMP inhibition, SSTR2 V103N, run 2
[19] = cAMP inhibition, SSTR2 V103N, run 3
[20] = cAMP inhibition, SSTR2 V103N, run 4

## C[C@@H](O)[C@@H]1NC(=O)[C@H](CCCCN)NC(=O)[C@@H](Cc2c[nH]c3ccccc23)NC(=O)[C@H](Cc2ccccc2)NC(=O)[C@@H](NC(=O)[C@H](N)Cc2ccccc2)CSSC[C@@H](C(=O)N[C@H](CO)[C@@H](C)O)NC1=O [octreotide]
W188A-2, run 2
  Top (best-fit value): 109.9
W188A-2, run 2, read-out: EC50 (best-fit value)
  EC50: 0.0722 nM
W188A-3, run 3
  Bottom (best-fit value): 3.856
  LogEC50 (best-fit value): -9.118
  Span (best-fit value): 88.75
  Top (best-fit value): 92.61
W188A-3, run 3, read-out: EC50 (best-fit value)
  EC50: 0.762 nM
W269A-1
  Bottom (best-fit): -8.692
  LogEC50 (best-fit): -8.978
  Span (best-fit): 108.2
  Top (best-fit): 99.53
W269A-1, read-out: EC50 (best-fit)
  EC50: 1.05 nM
W269A-2
  Bottom (best-fit): -48.61
  LogEC50 (best-fit): -9.361
  Span (best-fit): 149.9
  Top (best-fit): 101.3
W269A-2, read-out: EC50 (best-fit)
  EC50: 0.435 nM
W269A-3
  Bottom (best-fit): 12.63
  LogEC50 (best-fit): -8.938
  Span (best-fit): 80.26
  Top (best-fit): 92.88
W269A-3, read-out: EC50 (best-fit)
  EC50: 1.15 nM
Y302A-1
  Best-fit Bottom: -1.091
  Best-fit Span: 74.2
  Best-fit Top: 73.11
  LogEC50: -6.976
Y302A-1, read-out: EC50
  EC50: 106 nM
Y302A-2
  Best-fit Bottom: -6.663
  Best-fit Span: 106.6
  Best-fit Top: 99.95
  LogEC50: -7.6
Y302A-2, read-out: EC50
  EC50: 25.1 nM
Y302A-3
  Best-fit Bottom: -0.9588
  Best-fit Span: 65.18
  Best-fit Top: 64.22
  LogEC50: -6.976
Alanine replacement of F208, F272, Y302, Q126, D122 in SSTR2
  cAMP inhibition potency of mutants: significantly decreased the cAMP inhibition potency
[1]
  Bottom (best-fit value): 3.745
  LogEC50 (best-fit value): -9.177
  Span (best-fit value): 105.4
  Top (best-fit value): 109.1
cAMP inhibition, SSTR2 F127A-1 (run 1), read-out: EC50 (best-fit value)
  EC50: 0.665 nM
[2]
  Bottom (best-fit value): 6.147
  LogEC50 (best-fit value): -8.668
  Span (best-fit value): 104
  Top (best-fit value): 110.1
cAMP inhibition, SSTR2 F127A-2 (run 2), read-out: EC50 (best-fit value)
  EC50: 2.15 nM
[3]
  Bottom (best-fit value): 2.844
  LogEC50 (best-fit value): -8.526
  Span (best-fit value): 104.1
  Top (best-fit value): 107
cAMP inhibition, SSTR2 F127A-3 (run 3), read-out: EC50 (best-fit value)
  EC50: 2.98 nM
[4]
  Bottom (best-fit value): 10.39
  LogEC50 (best-fit value): -7.519
  Top (best-fit value): 89.25
cAMP inhibition, SSTR2 F208A-1 (run 1), read-out: EC50 (best-fit value)
  EC50: 30.3 nM
[5]
  Bottom (best-fit value): -4.181
  LogEC50 (best-fit value): -7.462
  Top (best-fit value): 54.09
cAMP inhibition, SSTR2 F208A-2 (run 2), read-out: EC50 (best-fit value)
  EC50: 34.6 nM
[6]
  Bottom (best-fit value): 13.21
  LogEC50 (best-fit value): -7.519
  Top (best-fit value): 113.5
[7]
  Bottom (best-fit value): 14.54
  LogEC50 (best-fit value): -8.728
  Span (best-fit value): 76.49
  Top (best-fit value): 91.02
cAMP inhibition, SSTR2 I130A-1 (run 1), read-out: EC50 (best-fit value)
  EC50: 1.87 nM
[8]
  Bottom (best-fit value): 3.27
  LogEC50 (best-fit value): -7.739
  Span (best-fit value): 103.8
  Top (best-fit value): 107
cAMP inhibition, SSTR2 I130A-2 (run 2), read-out: EC50 (best-fit value)
  EC50: 18.2 nM
[9]
  Bottom (best-fit value): 1.85
  LogEC50 (best-fit value): -7.833
  Span (best-fit value): 103.6
  Top (best-fit value): 105.4
cAMP inhibition, SSTR2 I130A-3 (run 3), read-out: EC50 (best-fit value)
  EC50: 14.7 nM
[10]
  Bottom (best-fit value): -15.61
  LogEC50 (best-fit value): -10.22
  Span (best-fit value): 114
  Top (best-fit value): 98.43
cAMP inhibition, SSTR2 Y205A-1 (run 1), read-out: EC50 (best-fit value)
  EC50: 0.0606 nM
[11]
  Bottom (best-fit value): -21.77
  LogEC50 (best-fit value): -10.31
  Span (best-fit value): 99.08
  Top (best-fit value): 77.31
cAMP inhibition, SSTR2 Y205A-2 (run 2), read-out: EC50 (best-fit value)
  EC50: 0.0488 nM
[12]
  Bottom (best-fit value): 1.644
  LogEC50 (best-fit value): -9.761
  Span (best-fit value): 161.4
  Top (best-fit value): 163
cAMP inhibition, SSTR2 Y205A-3 (run 3), read-out: EC50 (best-fit value)
  EC50: 0.173 nM
[13]
  LogEC50 (best-fit): -7.55
  Top (best-fit): 86.06
cAMP inhibition, SSTR2 T194H, run 1, read-out: EC50 (best-fit)
  EC50: 28.2 nM
[14]
  LogEC50 (best-fit): -7.55
  Top (best-fit): 86.06
cAMP inhibition, SSTR2 T194H, run 2, read-out: EC50 (best-fit)
  EC50: 28.2 nM
[15]
  LogEC50 (best-fit): -7.274
  Top (best-fit): 99.32
cAMP inhibition, SSTR2 T194H, run 3, read-out: EC50 (best-fit)
  EC50: 53.2 nM
[16]
  LogEC50 (best-fit): -7.828
  Top (best-fit): 111.2
cAMP inhibition, SSTR2 T194H, run 4, read-out: EC50 (best-fit)
  EC50: 14.9 nM
[17]
  LogEC50 (best-fit): -9.644
  Top (best-fit): 94
cAMP inhibition, SSTR2 V103N, run 1, read-out: EC50 (best-fit)
  EC50: 0.227 nM
[18]
  LogEC50 (best-fit): -9.644
  Top (best-fit): 94
cAMP inhibition, SSTR2 V103N, run 2, read-out: EC50 (best-fit)
  EC50: 0.227 nM
[19]
  LogEC50 (best-fit): -9.75
  Top (best-fit): 93.06
cAMP inhibition, SSTR2 V103N, run 3, read-out: EC50 (best-fit)
  EC50: 0.178 nM
[20]
  LogEC50 (best-fit): -9.608
  Top (best-fit): 108.8
cAMP inhibition, SSTR2 V103N, run 4, read-out: EC50 (best-fit)
  EC50: 0.247 nM

From PMC9944328 (Nature Communications, 2023)
